Publication PMC7050258, “Inhibition of MGAT2 modulates fat‐induced gut peptide release and fat intake in normal mice and ameliorates obesity and diabetes in ob/ob mice fed on a high‐fat diet” (FEBS Open Bio, 2020)
“And” between values parts separate entries of the source, which are not always exact repeats. Equal entries are not always repeated.

What was measured:
human MGAT2 = human MGAT2 (Homo sapiens, UniProt Q3SYC2); assay: in vitro inhibitory activity against MGAT2 (human); type: biochemical
Experimental: CpdB, CpdA, and pioglitazone were synthesized at Takeda Pharmaceutical Co., Ltd. (Tokyo, Japan). The in vitro inhibitory activities of CpdB and CpdA against MGAT2 and related acyltransferases (DGAT1, DGAT2, and ACAT1) were evaluated as described in our previous report 17 and patent application 19. Liraglutide (Victoza) was purchased from Novo Nordisk Pharma Ltd. (Bagsvaerd, Denmark). All other chemicals were of analytical grade and purchased from Wako Pure Chemicals (Osaka, Japan).

C57BL/6J mice [1] = assay: Oral meal tolerance test (MTT), plasma chylomicron TG; type: in vivo, mouse; settings: for Plasma CM/TG AUC (0-4 h), AVE: mean, N=6; for Plasma CM/TG AUC (0-4 h), individual animal: single animal values
Experimental: Overnight‐fasted C57BL/6J mice underwent an MTT in the morning. Vehicle, CpdA (3, 10 mg·kg^−1), or Cpd B (3, 10 mg·kg^−1) was administered by gavage. The compound was suspended in 0.5% methylcellulose. […] Thirty minutes after injection, liquid meal (10 mL·kg^−1) comprising an admixture of corn oil and Ensure‐H (3 : 17 v/v) (Abbott Japan Co., Ltd., Tokyo, Japan) was orally loaded. Blood samples were collected preload (defined as 0 h) and 2 and 4 h after fat load, and plasma TG levels were measured. The area under the curve (AUC) of chylomicron TG (CM/TG), which is synthesized from dietary fat in the small intestine, was calculated by subtracting the plasma TG levels of the meal‐unloaded group from that of the meal‐loaded group.

C57BL/6J mice [2] = assay: Fat-induced gut peptide release and plasma TG after meal or oil load; type: in vivo, mouse; settings: for Plasma total GLP-1 at 3 h, AVE / ΔPlasma total PYY AUC (0-2 h), AVE / Plasma total GLP-1 at 3 h, individual animal / ΔPlasma total PYY AUC (0-2 h), individual animal: CpdB 10 mg/kg oral; for Plasma total GLP-1 at 3 h, AVE / ΔPlasma total PYY AUC (0-2 h), AVE / Plasma TG at 2 h after oil load, AVE: mean, N=5; for Plasma total GLP-1 at 3 h, individual animal / ΔPlasma total PYY AUC (0-2 h), individual animal / Plasma TG at 2 h after oil load, individual animal: single animal values
Experimental: CpdB was suspended in 0.5% methylcellulose. Thirty minutes after administration, fat was loaded via oral gavage of either olive oil (8 mL·kg^−1) or liquid meal as described above (10 mL·kg^−1). Blood samples were collected precompound administration (defined as 0 h) and 1, 2, and 3 h after fat loading. Plasma levels of peptide tyrosine–tyrosine (PYY) and GLP‐1 were measured. To confirm the in vivo efficacy of CpdB, plasma TG levels were measured 2 h after olive oil loading. Mice orally loaded with water (8 mL·kg^−1) following vehicle administration were prepared as the control group.
(§1) Blood samples were collected from the tail or facial vein without anesthesia and centrifuged at 1500 g for 10 min at 4 °C to isolate the plasma. To prevent degradation of incretin hormone, blood samples were treated with not only heparin/aprotinin but also a dipeptidyl peptidase‐4 (DPP‐4) inhibitor. Plasma alanine aminotransferase […] levels were measured by an Autoanalyzer 7180 (Hitachi High‐Technologies Corporation, Tokyo, Japan). GHb was measured with an automated GHb analyzer (HLC‐723G8; Tosoh, Tokyo, Japan). Plasma insulin was measured with an ELISA kit (Shibayagi Co., Ltd., Gunma, Japan). Plasma levels of total GLP‐1 and total PYY were also measured with an ELISA kit (Wako Pure Chemicals).

[3] = Pharmacokinetics of CpdB in mice; type: in vivo; settings: C57BL/6J, mouse, plasma, 30 mg·kg^−1, 30 mg/kg single oral, mice fed an HFD, read-out: average plasma CpdB level 24 h after administration
Experimental: Fifty‐four‐week‐old C57BL/6J mice fed an HFD (45% kcal fat, 4.7 kcal·g^−1; D12451; Research Diets, Inc., New Brunswick, NJ, USA) were given a single oral administration of CpdB (30 mg·kg^−1). Blood samples were collected at 0.25, 0.5, 1, 2, 4, 8, and 24 h after the administration. Concentration of plasma CpdB in each sample was measured using liquid chromatography with tandem mass spectrometry as described in our previous report 18.

HFD-fed ob/ob mice = HFD-fed ob/ob mice study; type: in vivo, mouse
Experimental: Male ob/ob mice were fed an HFD (D12451; Research Diets, Inc.) from 8 weeks of age to the end of the study. After 2 weeks of HFD feeding, the mice were divided into groups based on their body weight, food intake, glycated hemoglobin (GHb), and plasma biochemical parameters. […] Compounds were suspended in 0.5% methylcellulose. Body weight and food intake were monitored during the study. On day 34, blood was collected and GHb and plasma biochemical parameters were measured. In addition, body composition was analyzed by EchoMRI‐900 (Hitachi Aloka Medical, Ltd., Tokyo, Japan). On day 36, the mice in the vehicle‐ and CpdB‐treated group were individually placed in the metabolic chamber of an Oxymax system (Columbus Instruments, Columbus, OH, USA). After 3 h of adaptation, oxygen consumption (VO2) and carbon dioxide production (VCO2) were analyzed for 22 h (from 13:00 to 11:00). During the measurement, dosing of vehicle or CpdB was performed at 18:00. Respiratory quotient (RQ) and energy expenditure (EE) were calculated with the following formulas: RQ=VCO2/VO2 EEkcal/h=3.815+1.232×VCO2/VO2×VO2
as §1

[4] = CpdB 30 mg/kg, pioglitazone 3 mg/kg oral once daily, mean
[5] = CpdB 30 mg/kg, pioglitazone 3 mg/kg oral once daily, single animal values
[6] = EchoMRI, day 34, CpdB 30 mg/kg, pioglitazone 3 mg/kg, mean
[7] = EchoMRI, day 34, CpdB 30 mg/kg, pioglitazone 3 mg/kg, single animal values
[8] = dark phase, day 36, CpdB 30 mg/kg, mean
[9] = dark phase, day 36, CpdB 30 mg/kg, single animal values
[10] = day 34, CpdB 30 mg/kg, pioglitazone 3 mg/kg oral once daily, mean ± SD, n=8
[11] = light phase, day 36, CpdB 30 mg/kg, mean
[12] = light phase, day 36, CpdB 30 mg/kg, single animal values

Sequence of human MGAT2 (Q3SYC2 whole entry): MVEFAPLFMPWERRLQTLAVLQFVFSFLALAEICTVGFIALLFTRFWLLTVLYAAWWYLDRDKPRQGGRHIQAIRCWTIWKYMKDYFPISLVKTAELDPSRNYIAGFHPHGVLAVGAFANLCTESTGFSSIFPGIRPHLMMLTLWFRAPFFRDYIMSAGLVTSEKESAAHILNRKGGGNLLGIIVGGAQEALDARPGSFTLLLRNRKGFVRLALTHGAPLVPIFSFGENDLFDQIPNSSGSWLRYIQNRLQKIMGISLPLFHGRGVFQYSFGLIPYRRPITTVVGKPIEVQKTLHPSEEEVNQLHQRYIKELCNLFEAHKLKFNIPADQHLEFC

## CC(C)(OC(=O)N[C@H]1CC[C@H](OC(=O)N2CCc3cc(S(=O)(=O)Nc4c(F)cc(Cl)cc4F)cc(N4CCCC4=O)c32)CC1)C(F)(F)F [CpdB]
Human MGAT2; MGAT2 vs DGAT1, DGAT2, ACAT1
  selectivity against related acyltransferases (DGAT1, DGAT2, and ACAT1): greater than 300 fold
Human MGAT2; human MGAT2
  IC50: 8.1 nM
C57BL/6J mice [1]; 3 mg/kg oral at -6.5 h
  Plasma CM/TG AUC (0-4 h), AVE: 3977.6 mg/dLxh
  Plasma CM/TG AUC (0-4 h), individual animal: 3401.5 mg/dLxh and 5885.8 mg/dLxh and 3966.4 mg/dLxh and 3504.4 mg/dLxh and 3174.7 mg/dLxh and 3932.8 mg/dLxh
C57BL/6J mice [1]; 10 mg/kg oral at -6.5 h
  decrease of plasma CM/TG AUC compared with the vehicle group: 37%
  Plasma CM/TG AUC (0-4 h), AVE: 4365.7 mg/dLxh
  Plasma CM/TG AUC (0-4 h), individual animal: 5644.3 mg/dLxh and 4575.4 mg/dLxh and 4611.1 mg/dLxh and 3882.4 mg/dLxh and 3535.9 mg/dLxh and 3945.4 mg/dLxh
C57BL/6J mice [1]; 10 mg/kg oral at -16.5 h
  Plasma CM/TG AUC (0-4 h), individual animal: 3845.1 mg/dLxh and 6306.3 mg/dLxh and 6722.1 mg/dLxh and 3383.1 mg/dLxh and 3918.6 mg/dLxh and 3231.9 mg/dLxh
C57BL/6J mice [1]; 10 mg/kg oral
  Plasma CM/TG AUC (0-4 h), AVE: 4567.8 mg/dLxh
C57BL/6J mice [2]; liquid meal load
  Plasma total GLP-1 at 3 h, AVE: 1.78 pM
  ΔPlasma total PYY AUC (0-2 h), AVE: 6.19 pMxh
  Plasma total GLP-1 at 3 h, individual animal: 4.08 pM and 1.57 pM and 0.30 pM and 2.65 pM
  ΔPlasma total PYY AUC (0-2 h), individual animal: 7.70 pMxh and -9.56 pMxh and 10.56 pMxh and 11.27 pMxh and 10.99 pMxh
C57BL/6J mice [2]; oil load, 10 mg/kg oral
  Plasma TG at 2 h after oil load, AVE: 242.5 mg/dL
C57BL/6J mice [2]; oil load, 10 mg/kg oral, 10 mg/kg
  Plasma TG at 2 h after oil load, individual animal: 165.0 mg/dL and 186.0 mg/dL and 337.8 mg/dL and 259.8 mg/dL and 264.0 mg/dL
C57BL/6J mice [2]; oil load, 30 mg/kg oral
  Plasma TG at 2 h after oil load, AVE: 219.8 mg/dL
C57BL/6J mice [2]; oil load, 30 mg/kg oral, 30 mg/kg
  Plasma TG at 2 h after oil load, individual animal: 261.0 mg/dL and 281.4 mg/dL and 164.4 mg/dL and 231.0 mg/dL and 161.4 mg/dL
C57BL/6J mice [2]; oil load
  Plasma total GLP-1 at 3 h, AVE: 17.63 pM
  ΔPlasma total PYY AUC (0-2 h), AVE: 68.45 pMxh
  Plasma total GLP-1 at 3 h, individual animal: 14.07 pM and 19.72 pM and 15.79 pM and 16.41 pM and 22.18 pM
  ΔPlasma total PYY AUC (0-2 h), individual animal: 83.34 pMxh and 44.80 pMxh and 90.28 pMxh and 47.69 pMxh and 76.14 pMxh
[3]
  concentration at 24 h: 580 nM
HFD-fed ob/ob mice; [4]
  Body weight change from initial, AVE: 16.96%
  Cumulative food intake, AVE: 119.28 g
HFD-fed ob/ob mice; [5]
  Body weight change from initial, individual animal: 14.99% and 19.62% and 18.91% and 14.63% and 13.72% and 24.18% and 12.96% and 16.65%
  Cumulative food intake, individual animal: 119.82 g and 117.97 g and 119.56 g and 119.18 g and 110.06 g and 129.88 g and 111.80 g and 125.96 g
HFD-fed ob/ob mice; [6]
  Body composition, Fat, AVE: 59.70%
  Body composition, Lean, AVE: 40.30%
HFD-fed ob/ob mice; [7]
  Body composition, Fat, individual animal: 63.06% and 55.96% and 61.22% and 59.99% and 59.40% and 60.55% and 59.10% and 58.29%
  Body composition, Lean, individual animal: 38.78% and 40.01% and 40.60% and 39.45% and 40.90% and 41.71% and 36.94% and 44.04%
HFD-fed ob/ob mice; before dosing, mean ± SD, n=8
  GHb, Pre: 5.9 ± 0.4%
  Plasma ALT, Pre: 378 ± 76 U·L^−1
  Plasma AST, Pre: 333 ± 64 U·L^−1
  Plasma insulin, Pre: 106 ± 30 ng/mL
HFD-fed ob/ob mice; change 34 days after repeated dosing, CpdB 30 mg/kg, pioglitazone 3 mg/kg oral once daily, mean
  ΔGHb, AVE: -0.45%
HFD-fed ob/ob mice; change 34 days after repeated dosing, CpdB 30 mg/kg, pioglitazone 3 mg/kg, single animal values
  ΔGHb, individual animal: 0.60% and -0.50% and -0.20% and -1.10% and -0.60%
HFD-fed ob/ob mice; [8]
  Average EE, Dark, AVE: 0.55 kcal/h
  Average RQ, Dark, AVE: 0.87
HFD-fed ob/ob mice; [9]
  Average EE, Dark, individual animal: 0.61 kcal/h and 0.55 kcal/h and 0.54 kcal/h and 0.52 kcal/h and 0.53 kcal/h
  Average RQ, Dark, individual animal: 0.88 and 0.87 and 0.85 and 0.86
HFD-fed ob/ob mice; [10]
  GHb, Post: 5.4 ± 0.6 %
  Plasma ALT, Post: 632 ± 144 U·L^−1
  Plasma AST, Post: 492 ± 122 U·L^−1
HFD-fed ob/ob mice; day 34, CpdB 30 mg/kg, pioglitazone 3 mg/kg oral once daily, nonfasting, mean ± SD, n=8
  Plasma insulin, Post: 109 ± 40 ng/mL
HFD-fed ob/ob mice; [11]
  Average EE, Light, AVE: 0.45 kcal/h
  Average RQ, Light, AVE: 0.83
HFD-fed ob/ob mice; [12]
  Average EE, Light, individual animal: 0.46 kcal/h and 0.42 kcal/h and 0.43 kcal/h and 0.44 kcal/h and 0.49 kcal/h and 0.48 kcal/h
  Average RQ, Light, individual animal: 0.82 and 0.83 and 0.84 and 0.80
